Legend:
[1] = system: psoriasis-like model mice (5% imiquimod cream); experiment: Imiquimod psoriasis-like mouse model, smear administration in carbomer gel; assay type: in vivo; conditions: nanomicelles in carbomer gel applied to skin lesions, after 7 d of treatment
Procedure: (§1) The psoriasis model on the back and ears of 6-8 weeks old mice (C57BL/6, Suzhou Xishan Biotechnology Co., Ltd.) was established with 5% imiquimod cream. After removing the hair on the back of the mice, 60 mg of 5% imiquimod cream was applied to the back and ears of each mouse for 6 consecutive days. […] CsA3-ASONFKBIZ-m nanomicelles were mixed with carbomer gel and applied to the skin lesions for treatment. The carbomer gel without CsA3-ASONFKBIZ-m nanomicelles was used as a control group (control) for efficacy testing. On the 7 d of treatment, the thickness of the skin at the back lesions and the thickness of the ears were measured, and the erythema, scaling, skin thickening, and severity of the psoriasis lesions were scored. The results were shown in FIG. 54, FIGS. 55A-55B, and FIGS. 56A-56D.
as §1, with “mice” for “mice (C57BL/6, Suzhou Xishan Biotechnology Co., Ltd.)”, “10TA-ASONFKBIZ-m” for “CsA3-ASONFKBIZ-m”, “The carbomer gel without CsA3-ASONFKBIZ-m nanomicelles was used as a control group (control) for efficacy testing.” left out, “The results were shown in FIG. 54, FIGS. 55A-55B, and FIGS. 56A-56D.” left out

[2] = system: mice with xerophthalmia (0.2% benzalkonium chloride); experiment: Benzalkonium chloride xerophthalmia mouse model: sodium fluorescein staining and phenol red cotton thread tear test; assay type: in vivo, mouse (C57BL/6)
Procedure: The ocular xerophthalmia model was established in 6-8 weeks old mice (C57BL/6, Suzhou Xishan Biotechnology Co., Ltd.) with 0.2% benzalkonium chloride. 5 μL of 0.2% benzalkonium chloride was dripped into each eye of the mice, once in the morning and once in the evening every day, for two consecutive weeks. After successful modeling, the hospital-prepared CsA eye drops (400 µM CsA, referred to as hospital-prepared CsA eye drops or CsA eye drops, provided by the Eye, Ear, Nose and Throat Hospital Affiliated to Fudan University School of Medicine, Shanghai) and CsA-ASONFKBIZ-m (400 µM CsA) were used for eye drops treatment, 5 μL per eye, once in the morning and once in the evening. Sodium fluorescein staining and phenol red cotton thread tear secretion test were conducted on days 0, 7, and 14 of treatment to evaluate the therapeutic effect.
(§2) The ocular xerophthalmia model was established in 6-8 weeks old mice (C57BL/6, Suzhou Xishan Biotechnology Co., Ltd.) with 0.2% benzalkonium chloride. 5 μL of 0.2% benzalkonium chloride was dripped into each eye of the mice, once in the morning and once in the evening every day, for two consecutive weeks. After successful modeling, the hospital-prepared CsA eye drops (400 μM CsA, provided by the Eye, Ear, Nose and Throat Hospital Affiliated to Fudan University School of Medicine, Shanghai) and 2CsA-ASONFKBIZ-m (400 µM CsA) were used for eye drops treatment, 5 μL per eye, once in the morning and once in the evening. Sodium fluorescein staining and phenol red cotton thread tear secretion test were conducted on days 0, 7, and 14 of treatment to evaluate the therapeutic effect.
as §2, with “µM” for “μM”, “provided” for “provided by”, “3CsA-ASONFKBIZ-m nanomicelles (133 µM ASO concentration, 400” for “2CsA-ASONFKBIZ-m (400”
as §2, with “CsA3-ASONFKBIZ-m nanomicelles” for “2CsA-ASONFKBIZ-m”, “0” for “0, 7,”
The ocular xerophthalmia model was established in 6-8 weeks old mice (C57BL/6, Suzhou Xishan Biotechnology Co., Ltd.) using 0.2% benzalkonium chloride. 5 μL of 0.2% benzalkonium chloride was dripped into each eye of the mouse, once in the morning and once in the evening every day for two weeks. After successful modeling, the hospital-prepared CsA eye drops (400 µM CsA, provided by the Eye, Ear, Nose and Throat Hospital Affiliated to Fudan University School of Medicine, Shanghai) and CsA-siRNANFKBIZ-m (400 µM CsA), 2CsA-siRNANFKBIZ-m nanomicelles (400 µM CsA), 3CsA-siRNANFKBIZ-m nanomicelles (400 µM CsA) were used for eye drops treatment, 5 μL per eye, once in the morning and once in the evening. […]

[3] = eye drops 5 μL per eye twice daily, 400 μM CsA (10RAP: 400 μM rapamycin), day 14
[4] = xerophthalmia mice, baseline of the treatment group

CsA3-ASONFKBIZ-m: CsA trimer on tripropargyl linker at 3′ end of ASO targeting mouse NFKBIZ (SEQ ID NO: 8) (AATACTGGTACATTGACGCC; 3'-NHS ASO with tripropargyl linker carrying three cyclosporin A, chemistry not given here, further chemistry not given here)
erythema and scaling of the skin lesions versus control group [1]: significantly reduced
skin thickness of the lesions (and ears) versus control group [1]: reduced
phenol red cotton thread infiltration length (tear secretion) after 14 d of treatment [2, 3]: about 3.5 mm
sodium fluorescein staining eye score after 14 d of treatment [2, 3]: about 6 points
phenol red cotton thread infiltration length (tear secretion), day 0 (before treatment) [2, 4]: 1.5 mm
sodium fluorescein staining eye score, day 0 (before treatment) [2, 4]: 10 points

— patent publication US20250367302A1, “SMALL MOLECULE DRUG-OLIGONUCLEOTIDE CONJUGATE AND USE THEREOF” (SHANGHAI JIAO TONG UNIVERSITY, priority 2022, published 2025)
